Each structure is given as a SMILES string.

Test [1] addresses T1, Gamma-aminobutyric acid receptor subunit alpha-1 (Homo sapiens) (UniProt P14867).
T1 sequence (whole entry): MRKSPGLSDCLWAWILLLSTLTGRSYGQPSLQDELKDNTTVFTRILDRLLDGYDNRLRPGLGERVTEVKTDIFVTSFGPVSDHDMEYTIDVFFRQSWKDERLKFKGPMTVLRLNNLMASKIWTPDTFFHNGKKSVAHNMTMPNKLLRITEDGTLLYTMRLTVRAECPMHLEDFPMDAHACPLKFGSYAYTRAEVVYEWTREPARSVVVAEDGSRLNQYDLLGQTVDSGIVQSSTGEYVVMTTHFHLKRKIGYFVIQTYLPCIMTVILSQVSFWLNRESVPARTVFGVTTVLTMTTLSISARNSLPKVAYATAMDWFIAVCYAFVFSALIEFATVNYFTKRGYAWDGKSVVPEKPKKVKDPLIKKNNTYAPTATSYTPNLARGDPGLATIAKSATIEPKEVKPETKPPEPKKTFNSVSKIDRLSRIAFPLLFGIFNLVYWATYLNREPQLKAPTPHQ
In words: Negative allosteric modulation of GABA-A alpha1 (unknown origin) assessed as reduction in DMCM induced current relative to DMCM.

The target of test [2] is T2, Gamma-aminobutyric acid receptor subunit alpha-3 (Homo sapiens) (UniProt P34903).
T2 sequence (whole entry): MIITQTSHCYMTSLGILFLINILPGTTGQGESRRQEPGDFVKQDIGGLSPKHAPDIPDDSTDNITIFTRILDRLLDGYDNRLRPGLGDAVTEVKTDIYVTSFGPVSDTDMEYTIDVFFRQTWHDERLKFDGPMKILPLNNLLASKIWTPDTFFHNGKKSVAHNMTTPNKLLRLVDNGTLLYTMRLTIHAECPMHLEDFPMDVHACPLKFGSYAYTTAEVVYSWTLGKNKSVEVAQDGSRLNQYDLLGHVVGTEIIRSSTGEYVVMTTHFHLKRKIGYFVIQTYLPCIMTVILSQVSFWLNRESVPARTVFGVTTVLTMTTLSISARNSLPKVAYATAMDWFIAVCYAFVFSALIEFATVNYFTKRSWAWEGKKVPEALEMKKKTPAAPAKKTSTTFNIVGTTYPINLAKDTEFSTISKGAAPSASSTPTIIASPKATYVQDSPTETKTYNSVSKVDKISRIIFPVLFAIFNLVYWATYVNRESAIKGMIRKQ
Description: Binding affinity to GABA-A alpha3 (unknown origin) assessed as reduction in DMCM induced current relative to DMCM.

Test [3] concerns Mus musculus. In words: In vivo receptor occupancy at GABAA receptor in po dosed mouse assessed as brain concentration causing 50% reduction in [3H]-flumazenil receptor labeling. Format: functional.
The target of test [4] is T3, Gamma-aminobutyric acid receptor subunit alpha-2 (Homo sapiens, UniProt P47869).
T3 sequence (P47869 whole entry): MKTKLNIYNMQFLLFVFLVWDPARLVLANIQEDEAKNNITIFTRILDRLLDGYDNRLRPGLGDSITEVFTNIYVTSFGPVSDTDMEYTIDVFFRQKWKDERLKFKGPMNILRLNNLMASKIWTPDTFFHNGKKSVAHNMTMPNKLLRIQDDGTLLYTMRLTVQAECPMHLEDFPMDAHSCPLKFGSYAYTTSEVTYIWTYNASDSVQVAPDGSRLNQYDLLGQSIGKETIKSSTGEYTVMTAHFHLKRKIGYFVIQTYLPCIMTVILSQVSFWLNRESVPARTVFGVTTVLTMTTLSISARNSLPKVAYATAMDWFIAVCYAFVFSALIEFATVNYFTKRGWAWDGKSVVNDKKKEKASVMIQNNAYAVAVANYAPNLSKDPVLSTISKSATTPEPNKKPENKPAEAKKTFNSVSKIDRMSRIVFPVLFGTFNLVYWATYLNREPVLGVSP
Description: Binding affinity to GABA-A alpha2 (unknown origin).

For test [5], the target named is T4, Gamma-aminobutyric acid receptor subunit alpha-1 (Homo sapiens, UniProt P14867).
T4 sequence (P14867 whole entry): T1 sequence (whole entry)
In words: Binding affinity to GABA-A alpha1 (unknown origin).

Test [6] deals with T5, Gamma-aminobutyric acid receptor subunit alpha-5 (Homo sapiens, UniProt P31644).
T5 sequence (P31644 whole entry): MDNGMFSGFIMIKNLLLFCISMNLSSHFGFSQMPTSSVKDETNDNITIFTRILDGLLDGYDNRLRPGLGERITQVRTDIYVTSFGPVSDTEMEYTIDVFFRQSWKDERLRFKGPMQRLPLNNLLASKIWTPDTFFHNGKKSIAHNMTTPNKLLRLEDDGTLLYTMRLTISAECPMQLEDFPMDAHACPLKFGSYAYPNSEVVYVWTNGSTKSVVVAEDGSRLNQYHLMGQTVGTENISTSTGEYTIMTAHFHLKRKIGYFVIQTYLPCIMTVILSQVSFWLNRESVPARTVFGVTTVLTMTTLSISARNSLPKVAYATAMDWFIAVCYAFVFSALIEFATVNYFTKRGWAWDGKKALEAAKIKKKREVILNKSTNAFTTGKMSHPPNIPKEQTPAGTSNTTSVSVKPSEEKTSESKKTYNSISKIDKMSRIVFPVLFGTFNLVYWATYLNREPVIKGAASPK
In words: Binding affinity to GABA-A alpha5 (unknown origin).

Test [7] relates to Homo sapiens. Description: In vivo receptor occupancy at GABAA receptor in po dosed human assessed as plasma concentration causing 50% reduction in [11C]-flumazenil receptor labeling. Format: functional.
Test [8] has as its system Rattus norvegicus. Description: In vivo receptor occupancy at GABAA receptor in po dosed rat assessed as brain concentration causing 50% reduction in [3H]-flumazenil receptor labeling. Format: functional.
The target of test [9] is T6, Gamma-aminobutyric acid receptor subunit alpha-2 (Homo sapiens) (UniProt P47869).
T6 sequence (whole entry): T3 sequence (P47869 whole entry)
Description: Binding affinity to GABA-A alpha2 (unknown origin) assessed as reduction in DMCM induced current relative to DMCM.

Test [10] relates to Homo sapiens. Description: In vivo receptor occupancy at GABAA receptor in human assessed as brain concentration causing reduction in [11C]-flumazenil receptor labeling at 2 mg after 1 hr by PET relative to control. Format: functional.
Test [11] concerns the target T7, Gamma-aminobutyric acid receptor subunit alpha-3 (Homo sapiens, UniProt P34903).
T7 sequence (P34903 whole entry): T2 sequence (whole entry)
Description: Binding affinity to GABA-A alpha3 (unknown origin).

The target in test [12] is T8, Gamma-aminobutyric acid receptor subunit alpha-5 (Homo sapiens) (UniProt P31644).
T8 sequence (whole entry): T5 sequence (P31644 whole entry)
In words: Binding affinity to GABA-A alpha5 (unknown origin) assessed as reduction in DMCM induced current relative to DMCM.

The target in test [13] is T1, Gamma-aminobutyric acid receptor subunit alpha-1 (Homo sapiens). In words: Binding affinity to GABA-A alpha1 (unknown origin) assessed as increase in induced current relative to control.
Test [14] has as its target T9, GABA-A receptor; alpha-3/beta-3/gamma-2 (Homo sapiens, UniProt P18507+P28472+P34903).
T9 sequence (P18507 whole entry): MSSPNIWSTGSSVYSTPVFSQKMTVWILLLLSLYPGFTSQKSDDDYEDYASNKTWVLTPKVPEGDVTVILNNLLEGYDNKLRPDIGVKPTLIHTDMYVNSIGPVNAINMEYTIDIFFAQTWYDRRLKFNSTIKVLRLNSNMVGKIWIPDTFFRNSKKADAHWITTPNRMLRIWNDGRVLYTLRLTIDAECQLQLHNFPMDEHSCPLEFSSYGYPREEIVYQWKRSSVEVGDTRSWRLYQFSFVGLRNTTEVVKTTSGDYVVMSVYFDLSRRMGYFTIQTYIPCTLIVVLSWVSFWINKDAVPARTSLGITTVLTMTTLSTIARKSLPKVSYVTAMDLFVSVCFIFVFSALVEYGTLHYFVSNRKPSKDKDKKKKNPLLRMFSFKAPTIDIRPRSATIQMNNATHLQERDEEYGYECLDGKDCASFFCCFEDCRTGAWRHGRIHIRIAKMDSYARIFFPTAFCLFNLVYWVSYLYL
T9 sequence (P28472 whole entry): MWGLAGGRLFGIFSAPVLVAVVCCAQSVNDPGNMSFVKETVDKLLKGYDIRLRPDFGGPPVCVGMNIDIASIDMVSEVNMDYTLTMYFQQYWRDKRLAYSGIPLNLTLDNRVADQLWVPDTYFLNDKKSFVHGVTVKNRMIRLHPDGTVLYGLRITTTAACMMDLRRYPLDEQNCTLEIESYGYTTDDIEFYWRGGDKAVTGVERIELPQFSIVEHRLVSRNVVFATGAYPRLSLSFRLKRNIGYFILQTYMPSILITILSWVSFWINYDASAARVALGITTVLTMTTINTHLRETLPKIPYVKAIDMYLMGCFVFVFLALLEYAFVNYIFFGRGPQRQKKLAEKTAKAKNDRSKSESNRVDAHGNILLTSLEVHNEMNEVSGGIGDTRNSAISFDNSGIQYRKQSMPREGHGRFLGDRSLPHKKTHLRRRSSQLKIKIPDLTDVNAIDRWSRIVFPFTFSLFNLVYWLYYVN
T9 sequence (P34903 whole entry): T2 sequence (whole entry)
In words: Displacement of [3H]-Ro15-1788 from human GABAA alpha3beta3gamma2 expressed in HEK293 cell membranes incubated for 40 or 90 mins by liquid scintillation counting method. Background: Displacement assays read how much labelled ligand stays bound in the presence of the test substance.

Test [15] concerns the target T6, Gamma-aminobutyric acid receptor subunit alpha-2 (Homo sapiens). Description: Binding affinity to GABA-A alpha2 (unknown origin) assessed as increase in induced current relative to control.
Test [16] is described as follows: Displacement of [3H]-Ro15-1788 from human GABAA alpha2beta3gamma2 expressed in HEK293 cell membranes incubated for 40 or 90 mins by liquid scintillation counting method.
Test [17] has as its target T10, GABA-A receptor; alpha-1/beta-3/gamma-2 (Homo sapiens, UniProt P14867+P18507+P28472).
T10 sequence (P14867 whole entry): T1 sequence (whole entry)
T10 sequence (P18507 whole entry): T9 sequence (P18507 whole entry)
T10 sequence (P28472 whole entry): T9 sequence (P28472 whole entry)
In words: Displacement of [3H]-Ro15-1788 from human GABAA alpha1beta3gamma2 expressed in HEK293 cell membranes incubated for 40 or 90 mins by liquid scintillation counting method.

Test [18] has as its target T2, Gamma-aminobutyric acid receptor subunit alpha-3 (Homo sapiens). In words: Binding affinity to GABA-A alpha3 (unknown origin) assessed as increase in induced current relative to control.
Test [19] concerns the target T8, Gamma-aminobutyric acid receptor subunit alpha-5 (Homo sapiens). In words: Binding affinity to GABA-A alpha5 (unknown origin) assessed as increase in induced current relative to control.
Test [20] relates to Rattus norvegicus. Description: In vivo receptor occupancy at GABAA receptor in po dosed Wistar rat brain assessed as brain concentration causing reduction in [3H]Flunitrazepam receptor labeling by scintillation counting method. Format: functional.
For test [21], the target named is T11, GABA-A receptor; alpha-5/beta-3/gamma-2 (Homo sapiens, UniProt P18507+P28472+P31644).
T11 sequence (P18507 whole entry): T9 sequence (P18507 whole entry)
T11 sequence (P28472 whole entry): T9 sequence (P28472 whole entry)
T11 sequence (P31644 whole entry): T5 sequence (P31644 whole entry)
Description: Displacement of [3H]-Ro15-1788 from human GABAA alpha5beta3gamma2 expressed in HEK293 cell membranes incubated for 40 or 90 mins by liquid scintillation counting method.

One may read the Ki as the equilibrium dissociation constant of an inhibitor or competing ligand from its target. Higher therefore signals a looser hold on the target. As to `Cc1cc(-c2nnc3c4ccccc4c(OCc4cn(C)nn4)nn23)no1`, the Efficacy was -0.25 in test [1], -0.11 in [2], 0.1 in [9] and -0.7 in test [12]. Moreover, the Occ50 was 0.25 mg/kg in [3], 10 ng/mL in test [7] and 0.12 mg/kg in test [8]. Besides, the inhibitory constant (Ki) is 0.58 nM in test [4], 0.88 nM in test [5], 0.66 nM in test [6] and 0.61 nM in test [11]. The Occ in [10] is listed as 50%.
On to `CC(C)(O)c1ccc2c(c1)ncn2-c1cccc(-c2ccccc2C#N)c1`, for which the fold change (FC) was 0.08 in test [13], 0.26 in [15], 0.52 in test [18] and 0.78 in test [19]. Further, the Ki in test [14] is 0.5 nM; in [16], 0.84 nM; in test [17] it was 0.41 nM; in [21] it was 0.12 nM. In addition, the Occ50 in [20] was 0.69 mg/kg.

The values are drawn from ChEMBL document CHEMBL4402545, “Subtype Selective γ-Aminobutyric Acid Type A Receptor (GABAAR) Modulators Acting at the Benzodiazepine Binding Site: An Update” (J Med Chem, 2020).
